Like-named read-outs stand apart in the source and are kept apart here.
Columns and labels:
[1] = target: T1, IKs currents (Homo sapiens, UniProt P51787); conditions: cited from earlier work
T1 construct: expressed in transfected cells; host or cells: Xenopus oocytes injected with cRNA (pSP64 poly(A) constructs)

[2] = test system: rat colon; assay: Rat colon GI contractility (deflection magnitude); conditions: n = 5 per group
Protocol: The ileum was harvested and placed in warmed (37° C.) Krebs […] buffer and oxygenated (95% O2 and 5% CO2). Segments approximately 4.5 cm long were placed on a transducer (Gilson Instruments) and a preload of 2 gm was applied. The tissue was placed in a chamber and bathed in Tyrode's solution (37.5° C.) and gassed with 95% O2 and 5% CO2. Muscle contractions were measured isometrically. After stable contractions were obtained, a study compound was added to the tissue bath and recordings made until a new steady state of contraction was obtained. Following a washout period, contractions were recorded during a new steady state period, then the procedure repeated with at a second dose of the drug being evaluated. Changes in contraction magnitude were recorded as the percentage change from baseline. This procedure is a modification of the technique described by Van Nueten and associates (Van Nueten, et al., Inhibition of dopamine receptors in the stomach: an explanation of the gastrokinetic properties of domperidone. Life Sciences 1978, 23:453-458). […] A segment of rat colon was suspended in a constant temperature bath as described above, and the baseline parameters measured oxygenated Tyrode's solution without erythromycin or chiral isolates.

[3] = test system: rat ileum; assay: Rat ileum GI contractility (isometric muscle contraction); conditions: for Deflection Magnitude, percentage change from control / Slow Wave Amplitude, percentage change from control / Slow Wave Frequency, percentage change from control: n = 5
Protocol: The ileum was harvested and placed in warmed (37° C.) Krebs […] buffer and oxygenated (95% O2 and 5% CO2). Segments approximately 4.5 cm long were placed on a transducer (Gilson Instruments) and a preload of 2 gm was applied. The tissue was placed in a chamber and bathed in Tyrode's solution (37.5° C.) and gassed with 95% O2 and 5% CO2. Muscle contractions were measured isometrically. After stable contractions were obtained, a study compound was added to the tissue bath and recordings made until a new steady state of contraction was obtained. Following a washout period, contractions were recorded during a new steady state period, then the procedure repeated with at a second dose of the drug being evaluated. Changes in contraction magnitude were recorded as the percentage change from baseline. This procedure is a modification of the technique described by Van Nueten and associates (Van Nueten, et al., Inhibition of dopamine receptors in the stomach: an explanation of the gastrokinetic properties of domperidone. Life Sciences 1978, 23:453-458).

T1 sequence (P51787 whole entry): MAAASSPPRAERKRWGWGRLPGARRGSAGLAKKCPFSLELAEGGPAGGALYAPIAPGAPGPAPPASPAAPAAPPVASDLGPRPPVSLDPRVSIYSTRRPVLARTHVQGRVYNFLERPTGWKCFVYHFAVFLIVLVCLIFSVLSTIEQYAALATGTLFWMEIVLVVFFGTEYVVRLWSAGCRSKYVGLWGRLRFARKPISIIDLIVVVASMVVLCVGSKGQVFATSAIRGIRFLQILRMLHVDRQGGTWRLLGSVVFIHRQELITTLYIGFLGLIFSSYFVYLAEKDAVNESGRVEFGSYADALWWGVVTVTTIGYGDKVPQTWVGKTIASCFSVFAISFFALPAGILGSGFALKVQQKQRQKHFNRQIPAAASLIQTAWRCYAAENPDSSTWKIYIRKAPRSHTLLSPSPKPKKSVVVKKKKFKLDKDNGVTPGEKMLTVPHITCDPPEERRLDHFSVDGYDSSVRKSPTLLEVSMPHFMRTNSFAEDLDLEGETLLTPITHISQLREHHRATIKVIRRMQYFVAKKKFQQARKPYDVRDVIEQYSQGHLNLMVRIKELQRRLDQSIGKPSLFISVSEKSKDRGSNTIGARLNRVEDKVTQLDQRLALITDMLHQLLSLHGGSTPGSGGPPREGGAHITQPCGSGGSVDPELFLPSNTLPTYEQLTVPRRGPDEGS

Row | Molecule | Reduction of IKs currents ([1]; quinidine 10^−4 M) | Reduction of IKs currents ([1]; quinidine 10^−6 M) | Percent Change in Deflection Magnitude, change from control ([2]; 10^−5 M) | Percent Change in Deflection Magnitude, change from control ([2]; 10^−6 M) | Percent Change in Deflection Magnitude, change from control ([2]; 10^−7 M) | Effect on slow contractile wave amplitude, slow wave frequency and magnitude of deflection, in words ([3]; 10^−7 M to 10^−5 M) | Deflection Magnitude, percentage change from control ([3]; erythromycin 10^−5 M) | Slow Wave Amplitude, percentage change from control ([3]; erythromycin 10^−5 M) | Slow Wave Frequency, percentage change from control ([3]; erythromycin 10^−5 M) | Deflection Magnitude, percentage change from control ([3]; erythromycin 10^−6 M) | Slow Wave Amplitude, percentage change from control ([3]; erythromycin 10^−6 M) | Slow Wave Frequency, percentage change from control ([3]; erythromycin 10^−6 M) | Deflection Magnitude, percentage change from control ([3]; erythromycin 10^−7 M) | Slow Wave Amplitude, percentage change from control ([3]; erythromycin 10^−7 M) | Slow Wave Frequency, percentage change from control ([3]; erythromycin 10^−7 M)
1 | C=C[C@H]1C[N@@]2CC[C@H]1C[C@@H]2[C@@H](O)c1ccnc2ccc(OC)cc12 [quinidine] | 52% | 14% | – | – | – | – | – | – | – | – | – | – | – | – | –
2 | Erythromycin | – | – | 95% | 70% | 33% | dose-related increase | 33% | 17% | 27% | 22% | 15% | 21% | 14% | 12% | 14%

Source: patent US20060074032A1 (Academic Pharmaceuticals, Inc., priority 2000, published 2006)
